Assay results reported in publication PMC7397249, “Properly Substituted Cyclic Bis-(2-bromobenzylidene) Compounds Behaved as Dual p300/CARM1 Inhibitors and Induced Apoptosis in Cancer Cells” (Molecules, 2020).

Assays:
[1] = biological target: T1, PCAF (Homo sapiens, UniProt Q92831); experiment: HotSpot HAT activity assay, PCAF; type: biochemical; conditions: 10-dose, from 200 μM; histone H3, [acetyl-3H]-acetyl-CoA
T1 construct: PCAF (aa 492–658, 250 nM); purchased Reaction Biology Corporation
Description: (§1) The newly synthesized compounds 4a–n were tested to determine their effects against acetylation and methylation epigenetic targets. First, 4a–n were screened in vitro against the two HAT enzymes p300 and PCAF. […] To determine the activity against SIRT1 and -2, 4a–n were tested starting from 200 μM solutions using a modified Fluor de Lys fluorescence-based assay with amino acids 379–382 (Arg-His-Lys-Lys(Ac)) of human p53 conjugated with aminomethylcoumarin as substrate and NAD^+ as co-substrate. […] Furthermore, 4a–n were tested against a human five-membered Polycomb repressive complex 2 (PRC2) containing EZH2, embryonic ectoderm development (EED), suppressor of zeste 12 (SUZ12), RbAp48, and adipocyte enhancer-binding protein (AEBP2), to assess their capability to inhibit the catalytic unit EZH2.
(§2) The effect of tested derivatives on the catalytic activity of p300 and PCAF was determined in a HotSpot HAT activity assay by Reaction Biology Corporation (Malvern, PA, USA) according to the company’s standard operating procedure. In brief, the recombinant catalytic domains of PCAF (aa 492–658, 250 nM) or p300 (aa 1284–1673, 30 nM) were incubated with histone H3 as substrate (5 µM) and [Acetyl-^3H]-Acetyl Coenzyme A (3 µM) as an acetyl donor in reaction buffer (50 mM Tris-HCl (pH 8.0), 50 mM NaCl, 0.1 mM EDTA, 1 mM DTT, 1 mM PMSF, 1% DMSO) for 1 h at 30 °C in the presence or absence of a dose titration of the compounds. The reaction mixture was delivered to filter-paper for detection. IC50 values were analyzed using Excel and GraphPad Prism 6.0 software (GraphPad Software Inc., San Diego, CA, USA). The experiments for p300 were performed in triplicate.

[2] = biological target: T2, p300 (Homo sapiens, UniProt Q09472); experiment: HotSpot HAT activity assay, p300; type: biochemical; conditions: 10-dose, triplicate, from 200 μM; histone H3, [acetyl-3H]-acetyl-CoA
T2 construct: p300 (aa 1284–1673, 30 nM); purchased Reaction Biology Corporation
T2 sequence (Q09472 1284-1673): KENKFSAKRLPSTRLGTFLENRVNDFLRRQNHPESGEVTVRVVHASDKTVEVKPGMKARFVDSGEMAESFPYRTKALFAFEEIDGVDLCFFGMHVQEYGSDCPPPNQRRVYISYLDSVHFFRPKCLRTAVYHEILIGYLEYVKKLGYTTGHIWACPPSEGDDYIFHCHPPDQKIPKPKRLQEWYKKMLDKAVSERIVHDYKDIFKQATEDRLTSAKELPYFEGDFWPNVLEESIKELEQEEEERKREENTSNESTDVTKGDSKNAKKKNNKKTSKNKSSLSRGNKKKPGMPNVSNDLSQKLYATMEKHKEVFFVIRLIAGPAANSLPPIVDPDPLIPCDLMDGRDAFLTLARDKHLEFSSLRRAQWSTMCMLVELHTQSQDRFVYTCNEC
Description: as §1, §2

[3] = test system: MCF-7 cells; experiment: Cell cycle and apoptosis (sub-G1) analysis by FACS in MCF-7 cells; type: cell-based, human; conditions: 5 μM, 30 h
Description: (§3) Compounds 4a–n were tested at 5 μM for 30 h in NB4 […] and U937 AML cells among hematological cancers, and in MCF-7 breast cancer and SH-SY5Y neuroblastoma cells among solid cancers, to determine their effects in cell cycle and apoptosis induction.
(§4) In the same cell lines, the induction of apoptosis has been evaluated through the percentage of the sub-G1 peaks.
(§5) For colorimetric exclusion, the cells (2 × 10^5 cells/mL) were plated in multiwells in triplicate. After stimulations at different times and concentrations, cells were diluted in the ratio 1:1 in Trypan Blue (Sigma) and counted with an optical microscope. For cell cycle analyses, cells were plated (2 × 10^5 cells/mL) and were harvested, centrifuged at 1200 rpm for 5 min and resuspended in 500 μL of a hypotonic solution containing 1× PBS, Sodium Citrate 0.1%, 0.1% NP-40, RNAase A and […] Propidium Iodide (PI). After 30 min at room temperature (RT) in the dark, samples were acquired by FACS-Calibur (BD Bioscences, San Jose, CA, USA) using CellQuest software (BD Biosciences). The percentage in different phases of the cell cycle was determined by ModFit LT V3 software (Verity). All experiments were performed in triplicate. Cell death was measured as percentage of cells in sub-G1 phase as in [30].

[4] = biological target: PRC2/EZH2 (Homo sapiens, UniProt Q15910); experiment: EZH2/PRC2 assay (core histone, 3H-SAM); type: biochemical; conditions: 10-dose, duplicate, from 400 μM
Chain of PRC2/EZH2 (Q15022 whole entry): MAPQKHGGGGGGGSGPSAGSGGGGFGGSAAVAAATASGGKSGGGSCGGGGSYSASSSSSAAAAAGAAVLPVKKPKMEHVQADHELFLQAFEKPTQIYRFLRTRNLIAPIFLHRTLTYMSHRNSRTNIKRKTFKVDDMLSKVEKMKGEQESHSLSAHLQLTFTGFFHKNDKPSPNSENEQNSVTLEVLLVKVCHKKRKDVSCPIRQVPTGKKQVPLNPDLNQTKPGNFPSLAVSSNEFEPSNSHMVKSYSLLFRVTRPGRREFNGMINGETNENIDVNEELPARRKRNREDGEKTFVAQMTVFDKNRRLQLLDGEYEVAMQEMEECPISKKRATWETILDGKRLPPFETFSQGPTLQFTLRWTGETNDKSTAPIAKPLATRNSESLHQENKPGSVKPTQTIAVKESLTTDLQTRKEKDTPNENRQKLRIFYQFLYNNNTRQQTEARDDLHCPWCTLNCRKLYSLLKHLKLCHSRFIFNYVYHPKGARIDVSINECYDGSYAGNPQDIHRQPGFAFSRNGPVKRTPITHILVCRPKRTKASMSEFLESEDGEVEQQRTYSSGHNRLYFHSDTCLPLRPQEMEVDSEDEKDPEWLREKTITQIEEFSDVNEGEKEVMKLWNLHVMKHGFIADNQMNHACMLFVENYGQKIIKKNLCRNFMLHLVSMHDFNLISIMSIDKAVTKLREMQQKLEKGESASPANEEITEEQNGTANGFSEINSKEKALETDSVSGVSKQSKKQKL
Chain of PRC2/EZH2 (Q09028 whole entry, further chain): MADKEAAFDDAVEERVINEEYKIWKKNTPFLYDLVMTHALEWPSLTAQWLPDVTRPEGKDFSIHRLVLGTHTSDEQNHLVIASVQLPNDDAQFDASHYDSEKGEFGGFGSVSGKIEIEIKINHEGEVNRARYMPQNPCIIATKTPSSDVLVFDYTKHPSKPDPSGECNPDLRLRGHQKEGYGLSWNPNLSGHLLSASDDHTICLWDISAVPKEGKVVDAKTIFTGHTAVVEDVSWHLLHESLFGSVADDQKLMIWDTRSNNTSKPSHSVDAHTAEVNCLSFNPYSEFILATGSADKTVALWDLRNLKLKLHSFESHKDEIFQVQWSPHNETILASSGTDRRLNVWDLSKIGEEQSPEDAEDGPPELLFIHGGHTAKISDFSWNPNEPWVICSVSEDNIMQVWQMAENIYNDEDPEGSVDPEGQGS
Chain of PRC2/EZH2 (Q6ZN18 whole entry, further chain): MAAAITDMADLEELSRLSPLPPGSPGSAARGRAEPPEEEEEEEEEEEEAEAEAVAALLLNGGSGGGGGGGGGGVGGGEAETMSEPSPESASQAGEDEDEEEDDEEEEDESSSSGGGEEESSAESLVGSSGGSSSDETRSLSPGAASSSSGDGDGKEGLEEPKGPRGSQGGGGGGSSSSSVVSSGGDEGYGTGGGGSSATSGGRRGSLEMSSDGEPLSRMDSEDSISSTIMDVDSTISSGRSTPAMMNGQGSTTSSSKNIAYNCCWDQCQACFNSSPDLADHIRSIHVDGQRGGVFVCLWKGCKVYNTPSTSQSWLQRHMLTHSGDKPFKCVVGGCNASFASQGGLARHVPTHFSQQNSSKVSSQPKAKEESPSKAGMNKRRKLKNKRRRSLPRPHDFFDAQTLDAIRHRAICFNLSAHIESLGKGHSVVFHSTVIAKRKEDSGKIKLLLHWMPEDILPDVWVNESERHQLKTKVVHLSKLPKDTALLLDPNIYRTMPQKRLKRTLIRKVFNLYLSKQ
Chain of PRC2/EZH2 (Q15910 whole entry): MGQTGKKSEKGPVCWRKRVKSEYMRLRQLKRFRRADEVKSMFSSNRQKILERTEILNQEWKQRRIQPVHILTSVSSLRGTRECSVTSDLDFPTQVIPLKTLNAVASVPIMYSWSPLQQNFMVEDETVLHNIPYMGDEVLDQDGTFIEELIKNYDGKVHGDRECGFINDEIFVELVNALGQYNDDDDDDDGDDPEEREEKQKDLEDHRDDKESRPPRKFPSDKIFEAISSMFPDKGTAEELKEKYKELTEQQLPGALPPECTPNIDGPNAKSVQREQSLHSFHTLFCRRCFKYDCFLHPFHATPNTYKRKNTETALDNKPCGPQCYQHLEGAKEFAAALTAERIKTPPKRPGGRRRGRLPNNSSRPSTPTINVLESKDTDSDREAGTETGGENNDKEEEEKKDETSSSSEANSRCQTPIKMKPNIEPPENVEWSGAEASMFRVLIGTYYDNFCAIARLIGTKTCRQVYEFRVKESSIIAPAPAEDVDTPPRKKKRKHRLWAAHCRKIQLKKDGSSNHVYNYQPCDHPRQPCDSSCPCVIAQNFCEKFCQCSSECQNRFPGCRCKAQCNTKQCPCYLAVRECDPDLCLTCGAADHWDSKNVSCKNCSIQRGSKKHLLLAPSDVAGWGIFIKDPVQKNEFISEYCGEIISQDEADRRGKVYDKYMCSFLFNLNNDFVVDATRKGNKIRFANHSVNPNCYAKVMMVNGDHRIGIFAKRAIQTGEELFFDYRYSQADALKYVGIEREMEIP
Chain of PRC2/EZH2 (O75530 whole entry, further chain): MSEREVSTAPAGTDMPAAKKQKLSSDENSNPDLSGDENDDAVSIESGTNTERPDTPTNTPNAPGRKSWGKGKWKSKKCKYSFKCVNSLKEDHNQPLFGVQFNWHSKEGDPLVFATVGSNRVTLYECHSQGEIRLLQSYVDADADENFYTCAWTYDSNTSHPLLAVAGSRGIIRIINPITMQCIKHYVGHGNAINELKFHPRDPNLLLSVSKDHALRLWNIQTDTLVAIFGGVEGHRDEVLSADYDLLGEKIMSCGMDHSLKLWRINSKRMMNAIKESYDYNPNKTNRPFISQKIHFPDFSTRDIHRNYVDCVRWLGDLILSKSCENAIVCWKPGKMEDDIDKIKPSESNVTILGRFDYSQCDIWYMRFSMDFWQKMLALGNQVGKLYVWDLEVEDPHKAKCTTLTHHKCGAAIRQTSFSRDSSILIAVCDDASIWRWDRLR
Description: as §1
The EZH2 substrate (0.05 mg/mL core histone) was added in the freshly prepared reaction buffer (50 mM Tris-HCl (pH 8.0), 50 mM NaCl, 1 mM EDTA, 1 mM DTT, 1 mM PMSF, 1% DMSO). The PRC2 complex (complex of human EZH2, human EED, human SUZ12, human AEBP2, and human RbAp48) was delivered into the substrate solution and the mixture was mixed gently. Afterwards, the tested compounds dissolved in DMSO were delivered into the enzyme/substrate reaction mixture by using Acoustic Technology (Echo 550, LabCyte Inc. Sunnyvale, CA, USA) in nanoliter range, and ^3H-SAM was added into the reaction mixture to initiate the reaction. The reaction mixture was incubated for 1 h at 30 °C and then it was delivered to filter-paper for detection. The data were analyzed using Excel and GraphPad Prism software for IC50 curve fits. The experiments were performed in duplicate.

[5] = biological target: T3, SIRT2 (Homo sapiens, UniProt Q8IXJ6); experiment: Modified Fluor de Lys fluorescence-based assay, SIRT2; type: biochemical; conditions: from 200 μM; p53 379-382 AMC substrate, NAD+
T3 construct: host or cells: E. coli
T3 sequence (Q8IXJ6 whole entry): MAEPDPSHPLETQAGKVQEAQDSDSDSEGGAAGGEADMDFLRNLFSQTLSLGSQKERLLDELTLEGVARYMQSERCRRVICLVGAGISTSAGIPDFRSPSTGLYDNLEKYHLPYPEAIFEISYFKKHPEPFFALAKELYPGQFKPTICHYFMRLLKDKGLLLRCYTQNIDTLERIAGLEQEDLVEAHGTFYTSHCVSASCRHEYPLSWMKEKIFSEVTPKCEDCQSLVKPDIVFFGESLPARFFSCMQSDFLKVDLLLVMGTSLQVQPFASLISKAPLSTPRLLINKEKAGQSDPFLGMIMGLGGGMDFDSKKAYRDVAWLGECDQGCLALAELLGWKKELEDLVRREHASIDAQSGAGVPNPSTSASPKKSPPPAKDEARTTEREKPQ
Description: as §1
(§6) The SIRT inhibition assay was performed using human recombinant SIRT1 and SIRT2 produced in E. coli. Compounds were tested using a modified Fluor de Lys fluorescence-based assay kit based on the method described in the BioMol product sheet (AK-555, AK-556, Milan, Italy). […] The second stage is initiated by the addition of the Developer II (KI176), including nicotinamide (NAM), nicotinamide that stops the SIRT1/2 activity, and the fluorescent signal is produced. The fluorescence was measured on a fluorometric reader (Infinite 200 TECAN, Männedorf, Switzerland) with excitation set at 360 nm and emission detection set at 460 nm.

[6] = biological target: T4, CARM1 (Homo sapiens, UniProt Q86X55); experiment: CARM1 assay (histone H3, 3H-SAM); type: biochemical
T4 sequence (Q86X55 1-608): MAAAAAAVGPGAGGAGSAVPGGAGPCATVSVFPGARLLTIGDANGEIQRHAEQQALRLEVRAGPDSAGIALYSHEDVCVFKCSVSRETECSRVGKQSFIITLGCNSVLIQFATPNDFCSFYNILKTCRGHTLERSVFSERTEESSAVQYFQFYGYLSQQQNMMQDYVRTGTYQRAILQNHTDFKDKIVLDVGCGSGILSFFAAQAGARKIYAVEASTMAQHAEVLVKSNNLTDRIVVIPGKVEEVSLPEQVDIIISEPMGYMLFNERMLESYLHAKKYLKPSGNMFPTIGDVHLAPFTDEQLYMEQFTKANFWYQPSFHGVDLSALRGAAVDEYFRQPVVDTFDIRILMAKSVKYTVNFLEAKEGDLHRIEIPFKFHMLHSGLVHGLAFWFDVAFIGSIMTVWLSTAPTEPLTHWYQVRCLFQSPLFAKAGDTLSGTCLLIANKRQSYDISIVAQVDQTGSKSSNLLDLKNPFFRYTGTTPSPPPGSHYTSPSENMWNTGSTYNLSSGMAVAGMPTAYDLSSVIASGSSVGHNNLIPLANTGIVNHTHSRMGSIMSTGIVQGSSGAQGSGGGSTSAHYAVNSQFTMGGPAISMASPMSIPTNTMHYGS
Description: Histone H3 (5 μM) was added in freshly prepared reaction buffer (50 mM Tris-HCl (pH 8.5), 5 mM MgCl2, 50 mM NaCl, 0.01% Brij35, 1 mM DTT, 1% DMSO). CARM1 was delivered into the substrate solution and the mixture was mixed gently. Afterwards, the tested compounds dissolved in DMSO were delivered into the enzyme/substrate reaction mixture by using Acoustic Technology (Echo 550, LabCyte Inc. Sunnyvale, CA) in nanoliter range, and 1 µM ^3H-SAM was also added into the reaction mixture to initiate the reaction. The reaction mixture was incubated for 1 h at 30 °C and then it was delivered to filter-paper for detection. The data were analyzed using Excel and GraphPad Prism software for IC50 curve fits. The experiments were performed in triplicate.

[7] = biological target: T5, SIRT1 (Homo sapiens, UniProt Q96EB6); experiment: Modified Fluor de Lys fluorescence-based assay, SIRT1; type: biochemical; conditions: from 200 μM; p53 379-382 AMC substrate, NAD+
T5 construct: host or cells: E. coli
T5 sequence (Q96EB6 whole entry): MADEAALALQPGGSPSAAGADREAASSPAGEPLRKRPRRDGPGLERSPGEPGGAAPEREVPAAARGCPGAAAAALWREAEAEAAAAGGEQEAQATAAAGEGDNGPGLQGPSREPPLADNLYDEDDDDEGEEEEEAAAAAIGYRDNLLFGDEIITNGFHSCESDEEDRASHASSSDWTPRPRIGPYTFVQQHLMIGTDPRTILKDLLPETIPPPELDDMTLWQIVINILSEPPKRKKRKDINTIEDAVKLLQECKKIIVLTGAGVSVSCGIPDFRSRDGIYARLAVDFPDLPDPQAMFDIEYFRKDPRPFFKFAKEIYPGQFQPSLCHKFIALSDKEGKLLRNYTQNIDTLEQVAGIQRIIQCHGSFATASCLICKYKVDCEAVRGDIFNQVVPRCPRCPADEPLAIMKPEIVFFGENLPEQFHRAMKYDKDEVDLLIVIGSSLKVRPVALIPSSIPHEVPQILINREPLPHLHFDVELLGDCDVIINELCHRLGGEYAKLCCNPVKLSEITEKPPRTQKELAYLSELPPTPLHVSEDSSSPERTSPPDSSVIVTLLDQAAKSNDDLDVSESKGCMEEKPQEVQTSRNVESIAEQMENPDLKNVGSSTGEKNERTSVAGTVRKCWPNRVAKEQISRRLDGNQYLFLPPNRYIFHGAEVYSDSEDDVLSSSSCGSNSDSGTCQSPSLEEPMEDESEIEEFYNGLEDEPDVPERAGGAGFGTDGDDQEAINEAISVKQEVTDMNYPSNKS
Description: as §1, §6

[8] = test system: p300; experiment: Western blot of acetylation marks (p300 inhibition) in MCF-7 cells; type: cell-based, human; conditions: 5 μM, 30 h
Description: (§7) In MCF-7 cells, the levels of acetyl-H3, acetyl-H4, H3K27me3, and H3R17me2 were detected by western blot analyses as functional tests for p300 (acH3 and acH4), EZH2 (H3K27me3) and CARM1 (H3R17me2) inhibition in cells, respectively (Figure 5).
(§8) The procedures were performed as described in [30, 31]. Primary antibodies used were: Ac-H3 (Millipore, Milan, Italy); Ac-H4 (Millipore, Milan, Italy); Ac-H3K9-14 (Diagenode, Ougrée, Belgium); Ac-α-tubulin (Sigma-Aldrich), H3K27me3 (Diagenode); H3R17me2 (Diagenode); EZH2 (Abcam, Cambridge, UK). H3 (Sigma-Aldrich), H4 (Abcam), GAPDH (Sigma) and ERKs (Santa Cruz, Biotechnology, TX, USA) were used to normalize the total protein extracts (see also Supplementary Material).

[9] = test system: CARM1; experiment: Western blot of H3R17me2 (CARM1) in MCF-7 cells; type: cell-based, human; conditions: 5 μM, 30 h
Description: as §7, §8

[10] = test system: NB4 cells; experiment: Cell cycle and apoptosis (sub-G1) analysis by FACS in NB4 cells; type: cell-based, human; conditions: 5 μM, 30 h
Description: as §3, §4, §5

[11] = test system: SET7; parameters: method as in PMID 21612300; conditions: cited from earlier work
[12] = biological target: T4, CARM1; parameters: method as in PMID 21612300; conditions: cited from earlier work
[13] = test system: PRMT1; parameters: method as in PMID 21612300; conditions: cited from earlier work
[14] = test system: EZH2; conditions: cited from earlier work
[15] = test system: p300 HAT; conditions: cited from earlier work

T1 sequence (Q92831 492-658): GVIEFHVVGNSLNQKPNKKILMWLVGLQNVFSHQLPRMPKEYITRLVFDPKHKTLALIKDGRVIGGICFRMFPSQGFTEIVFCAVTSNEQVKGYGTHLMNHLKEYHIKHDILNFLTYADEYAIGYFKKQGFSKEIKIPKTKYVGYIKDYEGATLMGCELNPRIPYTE

With CCCCCCCCCCCCCCCc1cccc(O)c1C(=O)O [anacardic acid, reference compound] the IC50 [1] was 40 ± 10.9 µM.

With O=C1/C(=C/c2ccccc2Br)CCC/C1=C\c1ccccc1Br [Compound 4a, 2,6-bis((E)-2-bromobenzylidene)cyclohexan-1-one] the IC50 [2] was 1.38 ± 0.24 µM, the IC50 [1] was greater than 200 µM and the “cell cycle: block in G1/S phase with almost total absence of cells in the G2/M phase” value (“cell cycle: block in G1/S phase” below) [3] was “almost total absence of cells”. The IC50 [4] was 117 ± 6 µM, the IC50 [5] was greater than 200 µM and the IC50 [6] was 16.8 ± 3.4 µM. The IC50 [7] was greater than 200 µM.

With O=C1/C(=C/c2ccccc2Br)CN(CCC(=O)c2ccccc2)C/C1=C\c1ccccc1Br [Compound 4i, 3,5-Bis((E)-2-bromobenzylidene)-1-(3-oxo-3-phenylpropyl)piperidin-4-one] the IC50 [2] was 1.57 ± 0.72 µM, the “levels of acetyl-H4” value [8] was “decrease of the acetylation levels” and the “levels of acetyl-α-tubulin” value [8] was “decrease of the acetylation levels”. For the same molecule, the IC50 [1] was greater than 200 µM, the melting point was 95 to 97 °C and the IC50 [4] was 60.6 ± 10.5 µM. The IC50 [5] was greater than 200 µM, the IC50 [6] was 6.96 ± 0.9 µM and the IC50 [7] was greater than 200 µM. For the same molecule, the “levels of H3R17me2” value [9] was “most effective”.

With CN1C/C(=C\c2ccccc2Br)C(=O)/C(=C/c2ccccc2Br)C1 [Compound 4d, 3,5-bis((E)-2-bromobenzylidene)-1-methylpiperidin-4-one] the IC50 [2] was 2.66 ± 0.15 µM, the “induction of apoptosis, % sub-G1 peaks” value [10] was 30 to 40% and the IC50 [1] was greater than 200 µM. The “cell cycle: block in G1/S phase” value [3] was “almost total absence of cells”, the IC50 [4] was 46.7 ± 1.1 µM and the IC50 [5] was greater than 200 µM. The IC50 [6] was 3.24 ± 1.22 µM and the IC50 [7] was greater than 200 µM.

Work on O=C1/C(=C/c2ccccc2Br)COC/C1=C\c1ccccc1Br [Compound 4b, 3,5-bis((E)-2-bromobenzylidene)tetrahydro-4H-pyran-4-one] yielded an IC50 [2] of 2.56 ± 0.23 µM, an IC50 [1] greater than 200 µM and an IC50 [5] greater than 200 µM. For the same molecule, the IC50 [6] was 23.3 ± 0.5 µM and the IC50 [7] was greater than 200 µM.

In the case of O=C1/C(=C/c2ccc(O)c(Br)c2)CN(Cc2ccccc2)C/C1=C\c1ccc(O)c(Br)c1 [Compound 2], the “SET7 inhibition (active/inactive)” value [11] is listed as “inactive”, the “CARM1 inhibition (active/inactive)” value [12] is listed as “active” and the “PRMT1 inhibition (active/inactive)” value [13] is listed as “inactive”. The “EZH2 inhibition (active/inactive)” value ([14]; ref unpublished results) was “active” and the “p300 HAT inhibition (active/inactive)” value [15] was “inactive”.

For O=C1/C(=C/c2ccccc2Br)CNC/C1=C\c1ccccc1Br [Compound 4c, 3,5-bis((E)-2-bromobenzylidene)piperidin-4-one], the IC50 [2] was 23.2 ± 0.51 µM, the IC50 [1] was greater than 200 µM and the “cell cycle: block in G1/S phase” value [3] was “almost total absence of cells”. For the same molecule, the IC50 [5] was greater than 200 µM, the IC50 [6] was 44.8 ± 6 µM and the IC50 [7] was greater than 200 µM.

In the case of O=C1/C(=C/c2cccc(Br)c2)CN(Cc2ccccc2)C/C1=C\c1cccc(Br)c1 [Compound 3, 1-benzyl-3,5-bis((E)-3-bromobenzylidene)piperidin-4-one], the “EZH2 inhibition (in words)” value [14] is listed as “dual p300/EZH2 inhibitor” and the “p300 inhibition (in words)” value [15] is listed as “dual p300/EZH2 inhibitor”.
